The source made the active and inactive calls. No cut-off for these calls is given here.
Assays:
NCI-H23 [1] = experiment: Growth inhibition of human NCI-H23 cells after 48 hrs by SRB assay; assay type: functional; conditions: NCI-H23, 48 h
HCT-15 [2] = experiment: Growth inhibition of human HCT15 cells after 48 hrs by SRB assay; assay type: functional; conditions: HCT-15, 48 h
[3] = target: Rho-related GTP-binding protein RhoB (Homo sapiens) (UniProt P62745); experiment: Transactivation of RhoB (unknown origin) transfected in human HeLa cells at 5 uM measured over 10 secs by dual luciferase reporter gene assay; assay type: cell-based
NUGC-3 [4] = experiment: Growth inhibition of human NUGC3 cells after 48 hrs by SRB assay; assay type: functional; conditions: NUGC-3, 48 h
ACHN [5] = experiment: Growth inhibition of human ACHN cells after 48 hrs by SRB assay; assay type: functional
MDA-MB-231 [6] = experiment: Growth inhibition of human MDA-MB-231 cells after 48 hrs by SRB assay; assay type: functional; conditions: MDA-MB-231, 48 h
PC-3 [7] = experiment: Growth inhibition of human PC3 cells after 48 hrs by SRB assay; assay type: functional; conditions: PC-3, 48 h
PC-3 [8] = experiment: Growth of human PC3 cells at 10 uM after 48 hrs by SRB assay; conditions: PC-3, 48 h
NUGC-3 [9] = experiment: Growth of human NUGC3 cells at 1 uM after 48 hrs by SRB assay; conditions: NUGC-3, 48 h
ACHN [10] = experiment: Growth of human ACHN cells at 10 uM after 48 hrs by SRB assay
HCT-15 [11] = experiment: Growth of human HCT15 cells at 3 uM after 48 hrs by SRB assay; conditions: HCT-15, 48 h
ACHN [12] = experiment: Growth of human ACHN cells at 0.1 uM after 48 hrs by SRB assay
ACHN [13] = experiment: Growth of human ACHN cells at 0.3 uM after 48 hrs by SRB assay
NUGC-3 [14] = experiment: Growth of human NUGC3 cells at 0.1 uM after 48 hrs by SRB assay; conditions: NUGC-3, 48 h
NUGC-3 [15] = experiment: Growth of human NUGC3 cells at 0.3 uM after 48 hrs by SRB assay; conditions: NUGC-3, 48 h
HCT-15 [16] = experiment: Growth of human HCT15 cells at 0.3 uM after 48 hrs by SRB assay; conditions: HCT-15, 48 h
NCI-H23 [17] = experiment: Growth of human NCI-H23 cells at 10 uM after 48 hrs by SRB assay; conditions: NCI-H23, 48 h
NCI-H23 [18] = experiment: Growth of human NCI-H23 cells at 0.3 uM after 48 hrs by SRB assay; conditions: NCI-H23, 48 h
MDA-MB-231 [19] = experiment: Growth of human MDA-MB-231 cells at 1 uM after 48 hrs by SRB assay; conditions: MDA-MB-231, 48 h
MDA-MB-231 [20] = experiment: Growth of human MDA-MB-231 cells at 10 uM after 48 hrs by SRB assay; conditions: MDA-MB-231, 48 h
MDA-MB-231 [21] = experiment: Growth of human MDA-MB-231 cells at 0.1 uM after 48 hrs by SRB assay; conditions: MDA-MB-231, 48 h
MDA-MB-231 [22] = experiment: Growth of human MDA-MB-231 cells at 3 uM after 48 hrs by SRB assay; values are per cent of control; conditions: MDA-MB-231, 48 h
PC-3 [23] = experiment: Growth inhibition of human PC3 cells at 1 uM after 48 hrs by SRB assay; values are per cent of control; conditions: PC-3, 48 h
PC-3 [24] = experiment: Growth inhibition of human PC3 cells at 3 uM after 48 hrs by SRB assay; values are per cent of control; conditions: PC-3, 48 h
ACHN [25] = experiment: Growth inhibition of human ACHN cells at 3 uM after 48 hrs by SRB assay; values are per cent of control
ACHN [26] = experiment: Growth inhibition of human ACHN cells at 1 uM after 48 hrs by SRB assay; values are per cent of control
NUGC-3 [27] = experiment: Growth inhibition of human NUGC3 cells at 3 uM after 48 hrs by SRB assay; values are per cent of control; conditions: NUGC-3, 48 h
PC-3 [28] = experiment: Growth inhibition of human PC3 cells at 0.1 uM after 48 hrs by SRB assay; values are per cent of control; conditions: PC-3, 48 h
PC-3 [29] = experiment: Growth inhibition of human PC3 cells at 0.3 uM after 48 hrs by SRB assay; values are per cent of control; conditions: PC-3, 48 h
HCT-15 [30] = experiment: Growth inhibition of human HCT15 cells at 1 uM after 48 hrs by SRB assay; values are per cent of control; conditions: HCT-15, 48 h
NUGC-3 [31] = experiment: Growth inhibition of human NUGC3 cells at 10 uM after 48 hrs by SRB assay; values are per cent of control; conditions: NUGC-3, 48 h
HCT-15 [32] = experiment: Growth inhibition of human HCT15 cells at 10 uM after 48 hrs by SRB assay; values are per cent of control; conditions: HCT-15, 48 h
NCI-H23 [33] = experiment: Growth inhibition of human NCI-H23 cells at 1 uM after 48 hrs by SRB assay; values are per cent of control; conditions: NCI-H23, 48 h
NCI-H23 [34] = experiment: Growth inhibition of human NCI-H23 cells at 3 uM after 48 hrs by SRB assay; values are per cent of control; conditions: NCI-H23, 48 h
HCT-15 [35] = experiment: Growth inhibition of human HCT15 cells at 0.1 uM after 48 hrs by SRB assay; values are per cent of control; conditions: HCT-15, 48 h
NCI-H23 [36] = experiment: Growth inhibition of human NCI-H23 cells at 0.1 uM after 48 hrs by SRB assay; values are per cent of control; conditions: NCI-H23, 48 h
MDA-MB-231 [37] = experiment: Growth inhibition of human MDA-MB-231 cells at 0.3 uM after 48 hrs by SRB assay; values are per cent of control; conditions: MDA-MB-231, 48 h

Chain of Rho-related GTP-binding protein RhoB (Homo sapiens) (P62745 whole entry): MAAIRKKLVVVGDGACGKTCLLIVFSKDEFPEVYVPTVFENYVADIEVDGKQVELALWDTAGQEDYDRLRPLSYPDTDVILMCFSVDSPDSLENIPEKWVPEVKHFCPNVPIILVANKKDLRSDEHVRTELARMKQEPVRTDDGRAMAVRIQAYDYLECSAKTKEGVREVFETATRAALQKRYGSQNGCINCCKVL

| SMILES | GI50 (NCI-H23 [1]) [nM] | GI50 (HCT-15 [2]) [nM] | Activity [3] | GI50 (NUGC-3 [4]) [nM] | GI50 (ACHN [5]) [nM] | GI50 (MDA-MB-231 [6]) [nM] | GI50 (PC-3 [7]) [nM] | growth, % of control at 10 µM (PC-3 [8]) [%] | growth, % of control at 1 µM (NUGC-3 [9]) [%] | growth, % of control at 10 µM (ACHN [10]) [%] | growth, % of control at 3 µM (HCT-15 [11]) [%] | growth, % of control at 0.1 µM (ACHN [12]) [%] | growth, % of control at 0.3 µM (ACHN [13]) [%] | growth, % of control at 0.1 µM (NUGC-3 [14]) [%] | growth, % of control at 0.3 µM (NUGC-3 [15]) [%] | growth, % of control at 0.3 µM (HCT-15 [16]) [%] | growth, % of control at 10 µM (NCI-H23 [17]) [%] | growth, % of control at 0.3 µM (NCI-H23 [18]) [%] | growth, % of control at 1 µM (MDA-MB-231 [19]) [%] | growth, % of control at 10 µM (MDA-MB-231 [20]) [%] | other results |
| --- | --- | --- | --- | --- | --- | --- | --- | --- | --- | --- | --- | --- | --- | --- | --- | --- | --- | --- | --- | --- | --- |
| CCCCCCCCCCCCCCS(=O)(=O)NCC(C)(C)C[N+](C)(C)C | 310 | 1700 | Active | 320 | 2600 | 2110 | 350 | -0.3 | 35.9 | 37.4 | 48.2 | 91.3 | 84.8 | 81.8 | 75.5 | 94.3 | -30.5 | 76.8 | 77.6 | 31 | growth, % of control at 0.1 µM (MDA-MB-231 [21]): 94.3%; growth, % of control at 3 µM (MDA-MB-231 [22]): 55.9%; growth, % of control at 1 µM (PC-3 [23]): 46%; growth, % of control at 3 µM (PC-3 [24]): 9.8%; growth, % of control at 3 µM (ACHN [25]): 57.1%; growth, % of control at 1 µM (ACHN [26]): 79.4%; growth, % of control at 3 µM (NUGC-3 [27]): 8.9%; growth, % of control at 0.1 µM (PC-3 [28]): 76.1%; growth, % of control at 0.3 µM (PC-3 [29]): 73.8%; growth, % of control at 1 µM (HCT-15 [30]): 89.2%; growth, % of control at 10 µM (NUGC-3 [31]): -8.2%; growth, % of control at 10 µM (HCT-15 [32]): 19.4%; growth, % of control at 1 µM (NCI-H23 [33]): 31.4%; growth, % of control at 3 µM (NCI-H23 [34]): 1.5%; growth, % of control at 0.1 µM (HCT-15 [35]): 98.1%; growth, % of control at 0.1 µM (NCI-H23 [36]): 88.5%; growth, % of control at 0.3 µM (MDA-MB-231 [37]): 88.5% |
| CCCCCCCCCCCCCCS(=O)(=O)N(C)CC[N+](CC)(CC)CC | 470 | 3460 | Active | 320 | 1460 | 870 | 520 | -11.5 | 20.9 | 21.2 | 72.5 | 96.4 | 94.5 | 92 | 83.8 | 96.6 | -5.6 | 90.1 | 54.2 | 17.2 | growth, % of control at 0.1 µM (MDA-MB-231 [21]): 96.4%; growth, % of control at 3 µM (MDA-MB-231 [22]): 34.1%; growth, % of control at 1 µM (PC-3 [23]): 41.4%; growth, % of control at 3 µM (PC-3 [24]): 0.9%; growth, % of control at 3 µM (ACHN [25]): 48.6%; growth, % of control at 1 µM (ACHN [26]): 68.7%; growth, % of control at 3 µM (NUGC-3 [27]): 7.9%; growth, % of control at 0.1 µM (PC-3 [28]): 103%; growth, % of control at 0.3 µM (PC-3 [29]): 102%; growth, % of control at 1 µM (HCT-15 [30]): 87.1%; growth, % of control at 10 µM (NUGC-3 [31]): -1.3%; growth, % of control at 10 µM (HCT-15 [32]): 36%; growth, % of control at 1 µM (NCI-H23 [33]): 39.8%; growth, % of control at 3 µM (NCI-H23 [34]): 15%; growth, % of control at 0.1 µM (HCT-15 [35]): 95.3%; growth, % of control at 0.1 µM (NCI-H23 [36]): 97.3%; growth, % of control at 0.3 µM (MDA-MB-231 [37]): 95.3% |
| CCCCCCCCCCCCCCCCS(=O)(=O)N(C)CC[N+](CC)(CC)CC | 550 | 1610 | Active | 220 | 1310 | 1170 | 520 | -21.4 | 19.6 | 15.4 | 50.9 | 92.6 | 92.8 | 69.8 | 70.3 | 87.6 | 3.4 | 93.7 | 65.5 | 20 | growth, % of control at 0.1 µM (MDA-MB-231 [21]): 87.3%; growth, % of control at 3 µM (MDA-MB-231 [22]): 37.4%; growth, % of control at 1 µM (PC-3 [23]): 47.5%; growth, % of control at 3 µM (PC-3 [24]): 11.3%; growth, % of control at 3 µM (ACHN [25]): 43.4%; growth, % of control at 1 µM (ACHN [26]): 70.4%; growth, % of control at 3 µM (NUGC-3 [27]): 5.8%; growth, % of control at 0.1 µM (PC-3 [28]): 95.5%; growth, % of control at 0.3 µM (PC-3 [29]): 84.7%; growth, % of control at 1 µM (HCT-15 [30]): 73.5%; growth, % of control at 10 µM (NUGC-3 [31]): -4%; growth, % of control at 10 µM (HCT-15 [32]): 21.8%; growth, % of control at 1 µM (NCI-H23 [33]): 44.3%; growth, % of control at 3 µM (NCI-H23 [34]): 15.5%; growth, % of control at 0.1 µM (HCT-15 [35]): 83%; growth, % of control at 0.1 µM (NCI-H23 [36]): 94%; growth, % of control at 0.3 µM (MDA-MB-231 [37]): 96.5% |

Reference: ChEMBL document CHEMBL2434921, “New synthetic aliphatic sulfonamido-quaternary ammonium salts as anticancer chemotherapeutic agents” (2013)
